# Data from ChEMBL document CHEMBL1155690, “Antiyeast steroidal saponins from Yucca schidigera (Mohave yucca), a new anti-food-deteriorating agent” (2000).
# Tests used:
# Assay type in all cases: functional
# [1] = system: Debaryomyces hansenii; assay: Antimicrobial activity against Debaryomyces hansenii IFO 18 after 48 hrs by agar dilution method; details: IFO 18, 48 h
# [2] = system: Wickerhamomyces anomalus; assay: Antimicrobial activity against Hansenula anomala HUT 7083 after 48 hrs by agar dilution method
# [3] = system: Candida albicans; assay: Antimicrobial activity against Candida albicans TIMM 0134 after 48 hrs by agar dilution method
# [4] = system: Yamadazyma nakazawae; assay: Antimicrobial activity against Pichia nakazawae HUT 1688 after 48 hrs by agar dilution method
# [5] = system: Saccharomyces cerevisiae; assay: Antimicrobial activity against Saccharomyces cerevisiae IFO 203 after 48 hrs by agar dilution method; details: IFO 203, 48 h
# [6] = system: Hanseniaspora uvarum; assay: Antimicrobial activity against Kloeckera apiculata IFO 154 after 48 hrs by agar dilution method; details: IFO 154, 48 h
SMILES,MIC [1] [µg/mL],MIC [2] [µg/mL],MIC [3] [µg/mL],MIC [4] [µg/mL],MIC [5] [µg/mL],MIC [6] [µg/mL]
C=C1CC[C@@]2(OC1)O[C@H]1C[C@H]3[C@@H]4CC[C@@H]5C[C@@H](O[C@@H]6O[C@H](CO)[C@@H](O)[C@H](O[C@@H]7OC[C@@H](O)[C@H](O)[C@H]7O)[C@H]6O[C@@H]6O[C@H](CO)[C@@H](O)[C@H](O)[C@H]6O)CC[C@]5(C)[C@H]4CC(=O)[C@]3(C)[C@H]1[C@@H]2C,> 100,> 100,> 100,> 100,> 100,> 100
C[C@H]1CC[C@@]2(OC1)O[C@H]1C[C@H]3[C@@H]4CC[C@@H]5C[C@@H](O[C@@H]6O[C@H](CO)[C@@H](O)[C@H](O[C@@H]7O[C@H](CO)[C@@H](O)[C@H](O)[C@H]7O)[C@H]6O[C@@H]6O[C@H](CO)[C@@H](O)[C@H](O)[C@H]6O)CC[C@]5(C)[C@H]4CC[C@]3(C)[C@H]1[C@@H]2C,6.25,1.56,> 100,3.13,6.25,> 100
C[C@H]1CC[C@@]2(OC1)O[C@H]1C[C@H]3[C@@H]4CC[C@@H]5C[C@@H](O[C@@H]6O[C@H](CO)[C@@H](O)[C@H](O)[C@H]6O[C@@H]6O[C@H](CO)[C@@H](O)[C@H](O)[C@H]6O)CC[C@]5(C)[C@H]4CC[C@]3(C)[C@H]1[C@@H]2C,> 100,6.25,12.5,3.13,12.5,> 100
C[C@H]1CC[C@@]2(OC1)O[C@H]1C[C@H]3[C@@H]4CC[C@@H]5C[C@@H](O[C@@H]6O[C@H](CO)[C@H](O)[C@H](O)[C@H]6O[C@@H]6O[C@H](CO)[C@@H](O)[C@H](O)[C@H]6O)[C@@H](O)C[C@]5(C)[C@H]4CC[C@]3(C)[C@H]1[C@@H]2C,> 100,> 100,> 100,100,> 100,> 100
C=C1CC[C@@]2(OC1)O[C@H]1C[C@H]3[C@@H]4CC[C@@H]5C[C@@H](O[C@@H]6O[C@H](CO)[C@H](O)[C@H](O[C@@H]7OC[C@@H](O)[C@H](O)[C@H]7O)[C@H]6O[C@@H]6O[C@H](CO)[C@@H](O)[C@H](O)[C@H]6O)[C@@H](O)C[C@]5(C)[C@H]4CC[C@]3(C)[C@H]1[C@@H]2C,> 100,> 100,100,100,100,> 100
C=C1CC[C@@]2(OC1)O[C@H]1C[C@H]3[C@@H]4CC[C@@H]5C[C@@H](O[C@@H]6O[C@H](CO)[C@@H](O)[C@H](O[C@@H]7O[C@H](CO)[C@@H](O)[C@H](O)[C@H]7O)[C@H]6O[C@@H]6O[C@H](CO)[C@@H](O)[C@H](O)[C@H]6O)CC[C@]5(C)[C@H]4CC[C@]3(C)[C@H]1[C@@H]2C,> 100,6.13,12.5,3.13,12.5,> 100
C=C1CC[C@@]2(OC1)O[C@H]1C[C@H]3[C@@H]4CC[C@@H]5C[C@@H](O[C@@H]6O[C@H](CO)[C@H](O)[C@H](O)[C@H]6O[C@@H]6O[C@H](CO)[C@@H](O)[C@H](O)[C@H]6O)[C@@H](O)C[C@]5(C)[C@H]4CC[C@]3(C)[C@H]1[C@@H]2C,> 100,> 100,> 100,> 100,> 100,> 100

# The next lines start with the values.
MIC [1] [µg/mL],MIC [2] [µg/mL],MIC [3] [µg/mL],MIC [4] [µg/mL],MIC [5] [µg/mL],MIC [6] [µg/mL],SMILES
50,3.13,> 100,12.5,25,> 100,CC1CC[C@@]2(OC1)O[C@H]1C[C@H]3[C@@H]4CC[C@@H]5C[C@@H](O[C@@H]6O[C@H](CO)[C@H](O)[C@H](O[C@@H]7OC[C@@H](O)[C@H](O)[C@H]7O)[C@H]6O[C@@H]6O[C@H](CO)[C@@H](O)[C@H](O)[C@H]6O)CC[C@]5(C)[C@H]4CC[C@]3(C)[C@H]1[C@@H]2C (mixture of isomers)
6.25,3.13,50,3.13,6.25,> 100,CC1CC[C@@]2(OC1)O[C@H]1C[C@H]3[C@@H]4CC[C@@H]5C[C@@H](O[C@@H]6O[C@H](CO)[C@@H](O)[C@H](O[C@@H]7OC[C@@H](O)[C@H](O)[C@H]7O)[C@H]6O[C@@H]6O[C@H](CO)[C@@H](O)[C@H](O)[C@H]6O)CC[C@]5(C)[C@H]4CC[C@]3(C)[C@H]1[C@@H]2C (mixture of isomers)
> 100,100,> 100,> 100,100,> 100,CC1CC[C@@]2(OC1)O[C@H]1C[C@H]3[C@@H]4CC[C@@H]5C[C@@H](O[C@@H]6O[C@H](CO)[C@@H](O)[C@H](O[C@@H]7OC[C@@H](O)[C@H](O)[C@H]7O)[C@H]6O[C@@H]6O[C@H](CO)[C@@H](O)[C@H](O)[C@H]6O)CC[C@]5(C)[C@H]4CC(=O)[C@]3(C)[C@H]1[C@@H]2C (mixture of isomers)
6.25,3.13,6.25,3.13,3.13,12.5,C=C1CC[C@@]2(OC1)O[C@H]1C[C@H]3[C@@H]4CC[C@@H]5C[C@@H](O[C@@H]6O[C@H](CO)[C@@H](O)[C@H](O[C@@H]7OC[C@@H](O)[C@H](O)[C@H]7O)[C@H]6O[C@@H]6O[C@H](CO)[C@@H](O)[C@H](O)[C@H]6O)CC[C@]5(C)[C@H]4CC[C@]3(C)[C@H]1[C@@H]2C
> 100,3.13,12.5,3.13,12.5,> 100,C=C1CC[C@@]2(OC1)O[C@H]1C[C@H]3[C@@H]4CC[C@@H]5C[C@@H](O[C@@H]6O[C@H](CO)[C@H](O)[C@H](O[C@@H]7OC[C@@H](O)[C@H](O)[C@H]7O)[C@H]6O[C@@H]6O[C@H](CO)[C@@H](O)[C@H](O)[C@H]6O)CC[C@]5(C)[C@H]4CC[C@]3(C)[C@H]1[C@@H]2C
100,> 100,> 100,> 100,100,> 100,CC1CC[C@@]2(OC1)O[C@H]1C[C@H]3[C@@H]4CC[C@@H]5C[C@@H](O[C@@H]6O[C@H](CO)[C@H](O)[C@H](O[C@@H]7OC[C@@H](O)[C@H](O)[C@H]7O)[C@H]6O[C@@H]6O[C@H](CO)[C@@H](O)[C@H](O)[C@H]6O)[C@@H](O)C[C@]5(C)[C@H]4CC[C@]3(C)[C@H]1[C@@H]2C (some centres undefined)
6.25,3.13,25,6.25,12.5,50,C[C@H]1CC[C@@]2(OC1)O[C@H]1C[C@H]3[C@@H]4CC[C@@H]5C[C@@H](O[C@@H]6O[C@H](CO)[C@H](O)[C@H](O[C@@H]7O[C@H](CO)[C@@H](O)[C@H](O)[C@H]7O)[C@H]6O[C@@H]6O[C@H](CO)[C@@H](O)[C@H](O)[C@H]6O)CC[C@]5(C)[C@H]4CC[C@]3(C)[C@H]1[C@@H]2C
